Active and inactive are the calls of the source.
Legend:
Aspartyl aminopeptidase = target: T1, Aspartyl aminopeptidase (Plasmodium falciparum 3D7, UniProt Q8I2J3)
T1 sequence (Q8I2J3 whole entry): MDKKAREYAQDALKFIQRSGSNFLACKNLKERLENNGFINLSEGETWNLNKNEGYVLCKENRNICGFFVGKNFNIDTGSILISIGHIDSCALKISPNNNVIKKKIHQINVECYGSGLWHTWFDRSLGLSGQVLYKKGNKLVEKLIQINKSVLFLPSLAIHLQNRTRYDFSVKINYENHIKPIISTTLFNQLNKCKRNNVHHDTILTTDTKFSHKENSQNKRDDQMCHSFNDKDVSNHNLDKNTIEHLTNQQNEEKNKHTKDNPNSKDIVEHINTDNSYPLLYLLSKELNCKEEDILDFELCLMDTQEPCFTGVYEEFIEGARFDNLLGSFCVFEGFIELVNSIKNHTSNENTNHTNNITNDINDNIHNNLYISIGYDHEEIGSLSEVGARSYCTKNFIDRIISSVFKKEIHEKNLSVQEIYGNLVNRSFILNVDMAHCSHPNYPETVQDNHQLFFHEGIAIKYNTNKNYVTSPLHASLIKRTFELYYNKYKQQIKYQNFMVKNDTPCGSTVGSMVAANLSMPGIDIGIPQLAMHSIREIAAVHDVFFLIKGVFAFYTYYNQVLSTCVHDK

Procathepsin L = Procathepsin L (Homo sapiens, UniProt P07711)
[1] = HEK-293T cell viability reduction – luminescence, B-cell screen hits, cytotoxicity control for BCR NF-kB inhibitor project, dose response (AID 489021); type: functional, cell-based;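 further: HEK-293T cells carrying an NF-kB luciferase reporter; cells exposed to compound for about 14 hours before viability readout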
[2] = target: T2, Carboxy-terminal domain RNA polymerase II polypeptide A small phosphatase 1 (Homo sapiens, UniProt Q9GZU7); experiment: CTDSP1 inhibitors, concentration-response, biochemical, absorbance readout, ultra-high-throughput screen actives (AID 540297); type: functional
T2 sequence (Q9GZU7 whole entry): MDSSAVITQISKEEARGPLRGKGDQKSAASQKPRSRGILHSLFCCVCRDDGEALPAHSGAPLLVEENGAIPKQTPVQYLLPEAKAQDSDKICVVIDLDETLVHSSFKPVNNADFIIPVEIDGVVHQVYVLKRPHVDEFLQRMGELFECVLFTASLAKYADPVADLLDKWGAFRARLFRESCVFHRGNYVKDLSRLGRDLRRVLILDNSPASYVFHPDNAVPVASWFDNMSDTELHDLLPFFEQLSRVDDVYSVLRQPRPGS

[3] = Luminescence Cell-Based Dose Response HTS to Identify Inhibitors of 5'UTR Stem-Loop Driven Prion Protein mRNA Translation in H4 Neuroglioblastoma Cells. [Related pubchem assays: 1827 (Project Summary), 1813 (Primary HTS)]; type: functional
[4] = luciferase reporter signal suppression in cells – H4 neuroglioma cells, luminescence, dose response (AID 1990); type: functional, cell-based
BJ [5] = experiment: cells; type: functional, cell-based; details: Homo sapiens
BJ [6] = experiment: BJ-TERT fibroblast viability loss – cell-based, RAS-independent, luminescence, dose response (AID 1933); type: functional; details: Homo sapiens
[7] = target: T3, Zinc finger protein mex-5 (Caenorhabditis elegans, UniProt Q9XUB2); experiment: potency of MEX-5 RNA-binding blockers – biochemical, C. elegans, fluorescence polarization, dose response (AID 1960)
T3 sequence (Q9XUB2 whole entry): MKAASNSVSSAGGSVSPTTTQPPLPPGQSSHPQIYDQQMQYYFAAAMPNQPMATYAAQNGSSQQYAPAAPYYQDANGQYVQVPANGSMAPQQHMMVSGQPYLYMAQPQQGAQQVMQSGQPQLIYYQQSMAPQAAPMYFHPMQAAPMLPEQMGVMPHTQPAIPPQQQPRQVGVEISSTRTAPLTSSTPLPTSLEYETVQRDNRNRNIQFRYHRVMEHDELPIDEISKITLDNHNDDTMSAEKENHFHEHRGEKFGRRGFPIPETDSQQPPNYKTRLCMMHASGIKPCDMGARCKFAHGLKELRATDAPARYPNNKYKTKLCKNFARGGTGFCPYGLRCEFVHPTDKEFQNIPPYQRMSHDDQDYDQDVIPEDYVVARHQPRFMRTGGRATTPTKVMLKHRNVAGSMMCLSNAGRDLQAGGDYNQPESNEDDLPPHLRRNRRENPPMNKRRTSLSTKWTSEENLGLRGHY

[8] = target: T4, RNA-binding protein pos-1 (Caenorhabditis elegans, UniProt G5EF15); experiment: disruptors of C. elegans POS-1 RNA interaction – biochemical, fluorescence polarization, dose response (AID 1964);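 further: purified POS-1 fused to maltose binding protein made in E. coli; potency of compounds blocking POS-1 binding to fluorescent RNA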
T4 sequence (G5EF15 whole entry): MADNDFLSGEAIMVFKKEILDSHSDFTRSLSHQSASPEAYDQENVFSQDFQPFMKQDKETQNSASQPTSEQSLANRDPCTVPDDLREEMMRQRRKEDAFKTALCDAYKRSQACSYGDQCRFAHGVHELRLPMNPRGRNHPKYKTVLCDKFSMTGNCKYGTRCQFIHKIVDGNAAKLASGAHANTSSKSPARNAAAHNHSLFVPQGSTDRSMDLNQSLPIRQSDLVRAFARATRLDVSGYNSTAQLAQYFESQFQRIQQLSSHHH

BJ [9] = experiment: growth inhibition of engineered Ras-driven BJ cells – cell-based, alamar blue fluorescence, cherrypicked samples, dose response (AID 2631); type: functional; details: Homo sapiens;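 further: confirmatory dose-response assay in RAS-dependent BJ fibroblasts engineered with TERT, LT and ST, with cytotoxicity read by fluorescence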
BJ [10] = experiment: BJ-TERT-LT-ST fibroblast viability loss – cell-based, RAS-independent, luminescence, dose response (AID 1935); type: functional; details: Homo sapiens;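 further: BJ fibroblasts immortalized with TERT plus LT and ST oncogenes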
[11] = DRD fibroblast viability loss – cell-based, non-viral oncogenic, luminescence, dose response (AID 1934); type: functional; details: Homo sapiens
Cytochrome P450 2C19 = Cytochrome P450 2C19 (Homo sapiens, UniProt P33261); experiment: Cytochrome panel assay with activity outcomes. Panel member name: p450-cyp2c19 Compounds with AC50 equal or less than 10 uM are considered active; type: functional; details: read-out: AC50
Cytochrome P450 3A4 = Cytochrome P450 3A4 (Homo sapiens, UniProt P08684);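 further: CYP3A4 tested as one member of a cytochrome P450 panel screen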
[12] = target: T5, Replicative DNA helicase DnaB (Mycobacterium tuberculosis, UniProt P9WMR3); experiment: DnaB intein splicing inhibitors, dose response, biochemical, cell-free fluorescence (AID 449749); type: functional
T5 sequence (P9WMR3 whole entry): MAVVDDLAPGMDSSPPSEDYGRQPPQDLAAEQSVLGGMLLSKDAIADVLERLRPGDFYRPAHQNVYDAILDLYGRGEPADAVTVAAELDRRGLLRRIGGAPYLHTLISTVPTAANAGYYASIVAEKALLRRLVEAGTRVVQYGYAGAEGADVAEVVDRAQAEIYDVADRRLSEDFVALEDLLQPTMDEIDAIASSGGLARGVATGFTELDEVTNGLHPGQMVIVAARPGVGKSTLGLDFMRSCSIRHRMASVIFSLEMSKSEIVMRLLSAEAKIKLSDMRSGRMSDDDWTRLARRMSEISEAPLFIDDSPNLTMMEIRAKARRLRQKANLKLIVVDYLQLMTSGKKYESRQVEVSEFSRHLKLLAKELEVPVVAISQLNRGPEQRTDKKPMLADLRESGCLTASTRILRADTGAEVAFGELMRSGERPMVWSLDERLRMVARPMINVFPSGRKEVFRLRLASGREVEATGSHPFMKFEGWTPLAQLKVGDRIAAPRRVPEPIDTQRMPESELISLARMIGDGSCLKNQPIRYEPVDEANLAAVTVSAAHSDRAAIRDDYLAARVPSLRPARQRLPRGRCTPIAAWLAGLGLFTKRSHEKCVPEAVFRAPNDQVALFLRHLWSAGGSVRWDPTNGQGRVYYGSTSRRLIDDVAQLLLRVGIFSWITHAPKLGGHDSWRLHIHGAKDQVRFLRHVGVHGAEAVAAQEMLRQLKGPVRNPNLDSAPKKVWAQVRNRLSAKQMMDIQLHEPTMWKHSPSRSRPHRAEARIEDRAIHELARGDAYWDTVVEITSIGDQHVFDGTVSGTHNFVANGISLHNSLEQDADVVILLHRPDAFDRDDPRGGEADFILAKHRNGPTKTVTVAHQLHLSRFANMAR

[13] = THP-1 cell cytotoxicity, dose response, cytotoxicity control for non-replicating M. tuberculosis project (AID 489025); type: functional
Vero = experiment: cells; type: functional; details: Chlorocebus sabaeus
[14] = HPDE-C7 pancreatic duct cell viability loss – fluorescence, HTS (AID 430); type: functional, cell-based; details: Homo sapiens
[15] = viability of PTEN-deleted HCT116 cells – cell-based, HCT116 PTEN knockout, dose response (AID 1047); type: functional;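 further: HCT116 colon tumor cells with PTEN knocked out; cells exposed to compound for 60 hours before readout; potency for loss of cell viability measured by luminescence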
[16] = Vero E6 cell cytotoxicity, dose response, cytotoxicity control for non-replicating M. tuberculosis project, secondary assay (AID 492998); type: functional, VeroE6; details: Vero C1008
[17] = Luminescence Cell-Based Dose Confirmation HTS to Identify Inhibitors of Platelet Dense Granule Release. [Related pubchem assays: 1663 (Primary HTS), 1678 (Summary of Project)]; type: functional
[18] = viability loss of HPDE-C7K cells – cell-based, fluorescence, HTS, primary screen (AID 431); type: functional; details: Homo sapiens
[19] = viability of HCT116 lacking mutant beta-catenin – cell-based, human colon tumor, dose response (AID 1045); type: functional;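 further: HCT116 colon tumor cells with beta catenin knocked out; cells exposed to compound for 60 hours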
Protein RecA = target: T6, Protein RecA (Mycobacterium tuberculosis, UniProt P9WHJ3); experiment: Fluorescence Cell-Free Homogeneous Dose Retest to Identify Inhibitors of RecA-Intein Splicing Activity. [Related pubchem assays (depositor defined):AID2097, AID2223, AID489010, AID492950]; type: functional
T6 sequence (P9WHJ3 whole entry): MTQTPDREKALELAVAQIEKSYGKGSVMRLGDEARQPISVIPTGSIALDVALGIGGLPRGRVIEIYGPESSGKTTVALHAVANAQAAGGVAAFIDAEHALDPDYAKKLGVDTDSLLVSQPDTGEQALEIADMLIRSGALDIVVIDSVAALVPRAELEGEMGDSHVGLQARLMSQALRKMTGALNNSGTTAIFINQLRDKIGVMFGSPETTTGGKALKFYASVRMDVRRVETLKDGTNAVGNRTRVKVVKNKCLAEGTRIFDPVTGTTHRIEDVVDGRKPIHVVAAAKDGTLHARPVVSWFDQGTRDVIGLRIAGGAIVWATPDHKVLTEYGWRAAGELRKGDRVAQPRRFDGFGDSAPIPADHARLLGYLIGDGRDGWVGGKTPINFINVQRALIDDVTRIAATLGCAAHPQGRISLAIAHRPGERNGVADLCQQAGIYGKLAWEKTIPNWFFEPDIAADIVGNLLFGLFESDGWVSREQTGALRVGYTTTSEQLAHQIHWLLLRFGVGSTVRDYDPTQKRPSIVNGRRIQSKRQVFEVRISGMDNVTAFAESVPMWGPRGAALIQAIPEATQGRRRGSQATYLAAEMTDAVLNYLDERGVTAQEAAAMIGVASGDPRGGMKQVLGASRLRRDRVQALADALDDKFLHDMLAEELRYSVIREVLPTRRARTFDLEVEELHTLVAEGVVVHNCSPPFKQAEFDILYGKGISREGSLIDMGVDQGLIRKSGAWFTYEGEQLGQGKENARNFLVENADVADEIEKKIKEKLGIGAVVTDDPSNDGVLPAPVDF

cells = type: functional
[20] = target: Luciferin 4-monooxygenase (Photinus pyralis, UniProt P08659); experiment: inhibition of purified Photinus pyralis luciferase – biochemical, luminescence, dose response (AID 1891)
[21] = alpha-synuclein stem-loop luciferase translation blockers – H4 neuroglioma cells, luminescence, confirmation (AID 1988); type: functional, cell-based

Chain of Procathepsin L (P07711 whole entry): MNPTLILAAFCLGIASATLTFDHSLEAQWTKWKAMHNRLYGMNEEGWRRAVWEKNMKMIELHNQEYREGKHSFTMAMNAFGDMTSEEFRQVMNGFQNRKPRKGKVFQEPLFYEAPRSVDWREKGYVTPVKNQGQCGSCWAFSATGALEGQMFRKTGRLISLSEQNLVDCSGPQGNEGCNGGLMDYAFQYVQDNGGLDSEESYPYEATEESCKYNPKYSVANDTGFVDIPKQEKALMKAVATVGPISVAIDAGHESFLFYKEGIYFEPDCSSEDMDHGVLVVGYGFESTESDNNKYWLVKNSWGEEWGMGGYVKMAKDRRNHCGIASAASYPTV
Chain of Cytochrome P450 2C19 (P33261 whole entry): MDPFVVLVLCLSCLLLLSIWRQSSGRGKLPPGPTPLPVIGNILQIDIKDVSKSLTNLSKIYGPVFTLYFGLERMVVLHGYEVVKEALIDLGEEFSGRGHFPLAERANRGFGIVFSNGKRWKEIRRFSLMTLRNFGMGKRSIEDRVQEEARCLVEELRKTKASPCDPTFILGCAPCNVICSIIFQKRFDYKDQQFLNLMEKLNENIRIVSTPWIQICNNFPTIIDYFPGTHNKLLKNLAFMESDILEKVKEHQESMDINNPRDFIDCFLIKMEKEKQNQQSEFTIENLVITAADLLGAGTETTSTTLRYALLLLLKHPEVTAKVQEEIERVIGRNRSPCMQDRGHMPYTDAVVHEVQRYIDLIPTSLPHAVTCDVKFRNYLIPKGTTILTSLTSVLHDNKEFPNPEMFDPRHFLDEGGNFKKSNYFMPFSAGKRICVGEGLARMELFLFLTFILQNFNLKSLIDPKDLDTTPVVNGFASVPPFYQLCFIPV
Chain of Cytochrome P450 3A4 (P08684 whole entry): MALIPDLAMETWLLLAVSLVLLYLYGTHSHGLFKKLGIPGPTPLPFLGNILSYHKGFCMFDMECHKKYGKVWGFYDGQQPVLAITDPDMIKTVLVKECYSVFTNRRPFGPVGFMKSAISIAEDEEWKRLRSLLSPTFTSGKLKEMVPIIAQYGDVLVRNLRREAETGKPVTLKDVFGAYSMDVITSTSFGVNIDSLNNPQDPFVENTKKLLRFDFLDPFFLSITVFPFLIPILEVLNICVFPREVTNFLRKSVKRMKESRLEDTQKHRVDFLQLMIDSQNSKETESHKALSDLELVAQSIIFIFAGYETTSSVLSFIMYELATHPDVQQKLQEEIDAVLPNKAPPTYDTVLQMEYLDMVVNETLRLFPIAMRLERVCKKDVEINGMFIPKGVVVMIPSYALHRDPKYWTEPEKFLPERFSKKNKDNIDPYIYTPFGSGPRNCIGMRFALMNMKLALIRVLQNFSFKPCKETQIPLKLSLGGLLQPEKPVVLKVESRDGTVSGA
Chain of Luciferin 4-monooxygenase (P08659 whole entry): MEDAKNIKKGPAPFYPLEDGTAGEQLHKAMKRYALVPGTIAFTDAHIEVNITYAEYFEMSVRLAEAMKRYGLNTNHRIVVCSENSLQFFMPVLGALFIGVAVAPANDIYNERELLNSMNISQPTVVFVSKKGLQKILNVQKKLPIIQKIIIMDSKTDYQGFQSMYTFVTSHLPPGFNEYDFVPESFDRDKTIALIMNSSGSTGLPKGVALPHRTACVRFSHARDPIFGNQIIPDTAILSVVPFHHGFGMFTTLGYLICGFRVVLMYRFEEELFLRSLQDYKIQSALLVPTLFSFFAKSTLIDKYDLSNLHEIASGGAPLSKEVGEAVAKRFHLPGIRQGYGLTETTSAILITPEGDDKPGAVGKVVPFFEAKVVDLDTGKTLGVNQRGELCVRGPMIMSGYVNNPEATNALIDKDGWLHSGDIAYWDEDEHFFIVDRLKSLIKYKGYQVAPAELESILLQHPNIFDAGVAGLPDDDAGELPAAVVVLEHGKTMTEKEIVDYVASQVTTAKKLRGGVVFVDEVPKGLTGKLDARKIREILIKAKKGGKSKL

## CC1(C)C2([N+](=O)[O-])CN3CC1([N+](=O)[O-])CN(C2)C3c1ccc(O)c(O)c1 (configuration not stated)
Aspartyl aminopeptidase
  IC50: 1.19 µM (active)
Procathepsin L
  IC50: > 59.6 µM (not active)

## COc1ccc(/C=C2\SC(=S)N(CCC(=O)Nc3ccc(C(=O)O)cc3)C2=O)cc1
[1]
  IC50: > 80 µM (inactive)
[2]
  IC50: 2.63 µM (active)

## Cc1nc2cc(-c3ccc(Cl)cc3)nn2c(C)c1CCC(=O)NC(C)c1ccc2c(c1)OCCO2 (configuration not stated)
[3]
  EC50: 11.6 µM (active)
[1]
  IC50: > 80 µM (inactive)
[4]
  EC50: < 0.1 µM (active)

## Cc1ccc(-c2nn3c(C)nnc3c3ccccc23)cc1S(=O)(=O)N1CCN(CCO)CC1
[1]
  IC50: > 80 µM (inactive)

## O=C(Nc1cccc(Cl)c1Cl)Nn1cnnc1
Aspartyl aminopeptidase
  IC50: 0.631 µM (active)
Procathepsin L
  IC50: > 59.6 µM (not active)

## CCc1ccc(/C=C2/SC(=S)N(CCC(=O)Nc3cccnc3)C2=O)cc1
BJ [5]
  EC50: > 150 µM (inconclusive)
BJ [6]
  EC50: 2.88 µM (inconclusive)
[7]
  EC50: > 300 µM (inconclusive)
[8]
  EC50: 141 µM (active)
[1]
  IC50: > 80 µM (inactive)
BJ [9]
  EC50: > 66.7 µM (inactive)
BJ [10]
  EC50: > 75 µM (inconclusive)
[11]
  EC50: 12.8 µM (active)

## Cc1ccc(N2C(=O)/C(=C/Nn3cnnc3)c3ccccc3C2=O)cc1
Aspartyl aminopeptidase
  IC50: 1.67 µM (active)
Procathepsin L
  IC50: > 59.6 µM (not active)
Cytochrome P450 2C19
  AC50: 10 µM (inconclusive)
Cytochrome P450 3A4
  AC50: 15.8 µM (inconclusive)

## Cc1cccc(OCCN2CSC(=S)N(C)C2)c1
[12]
  AC50: 14.7 µM (active)
[13]
  CC50: 11.8 µM (active)
Vero
  CC50: 7.62 µM (active)
[14]
  EC50: 6.23 µM (active)
[15]
  EC50: 7.66 µM (active)
[16]
  CC50: 6.85 µM (active)
[17]
  EC50: > 112 µM (not active)
[18]
  EC50: 6.24 µM (active)
[19]
  EC50: 4.21 µM (active)
Protein RecA
  EC50: 12.5 µM (active)
cells
  IC50: 10.4 µM (active)
[20]
  EC50: > 112 µM (not active)

## Cc1ccc(N=C(S)Nn2cnnc2)c(C)c1
Aspartyl aminopeptidase
  IC50: 2.11 µM (active)
Procathepsin L
  IC50: > 59.6 µM (not active)

## Cc1cc(C)cc(C(=O)n2cnnc2N)c1
Aspartyl aminopeptidase
  IC50: 2.89 µM (active)
Procathepsin L
  IC50: > 59.6 µM (not active)

## Cc1ccc(CSc2nnc(SCC(=O)N/N=C/C=C/c3ccccc3[N+](=O)[O-])s2)cc1
[3]
  EC50: 12.9 µM (active)
[1]
  IC50: > 80 µM (inactive)
[4]
  EC50: 9.7 µM (active)
[21]
  EC50: 12.1 µM (active)

Source: ChEMBL document CHEMBL1201862, “PubChem BioAssay data set” (2004)
